Source: article PMC5322872, “ALKBH7 Variant Related to Prostate Cancer Exhibits Altered Substrate Binding” (PLoS Computational Biology, 2017)

Target: T1, ALKBH7 (Homo sapiens, UniProt Q9BT30)
T1 sequence (Q9BT30 17-215): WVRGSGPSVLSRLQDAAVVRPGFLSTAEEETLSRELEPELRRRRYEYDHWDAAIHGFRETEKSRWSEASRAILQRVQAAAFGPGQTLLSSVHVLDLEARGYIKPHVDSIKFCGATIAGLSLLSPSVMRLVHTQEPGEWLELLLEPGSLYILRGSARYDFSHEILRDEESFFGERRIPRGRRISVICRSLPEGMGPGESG
Experiment: anaerobic difference UV-Vis spectroscopy (MLCT transition at […] nm)
Format: binding
Details: 0.3 mM protein, 100 uM Fe(II), α-kg 2 mM in Fig 4 legend but 0.2 mM in Methods

O=C(O)CCC(=O)C(=O)O [α-kg]
anaerobic difference UV-Vis spectroscopy (MLCT transition at 510 nm): The spectrum of WT ALKBH7·Fe(II)·α-kg minus that of ALKBH7·α-kg revealed the typical weak MLCT transitions
